Series [1] in a line: Visual cytotoxicity in BSC-1 cells. Particulars: monkey, visual cytotoxicity at time of HSV-1 plaque enumeration, read-out: 50% Inhibitory Concentration, Cytotoxicity BSC. The series is classed as cell-based, African green monkey. The text has this:
Cytotoxicity produced in HFF and BSC-1 cells was estimated by visual scoring of cells not affected by virus infection in the HCMV and HSV-1 plaque reduction assays. Cytopathology was estimated at 35- and 60-fold magnification and scored on a zero to four plus basis. Wells were scored on the day of staining.

Another series concerns HCMV DNA synthesis. Nature of the series: HCMV DNA synthesis by dot-blot hybridization. The series is classed as cell-based, human cytomegalovirus. The settings on record: Human betaherpesvirus 5; Table 2; read-out: 50% Inhibitory Concentration, HCMV DNA Synthesis. As to the method: The amount of HCMV DNA synthesis was determined in two types of experiments: (a) as an integral part of HCMV titer (yield) reduction experiments and (b) as separate experiments to determine only the amount of viral DNA synthesis in the absence or presence of test compounds.
HFF cells were planted in 25 cm^2 flasks and infected with HCMV as described in part 2 and incubated at 37° C. Before harvesting at selected times by the addition of 0.1 volume of 0.2M EDTA, an aliquot of medium was removed for determination of HCMV titer. After harvesting cells into the medium, aliquots were retained for determination of HCMV DNA by hybridization.
HFF cells were planted in 96-well cluster plates at 20,000 cell/well in 200 μl of growth medium [MEM(E)] with 1.1 gm/liter NaHCO3 and 10% fetal bovine serum. […]
Following hybridization, the membrane was washed sequentially in 100 ml 2×SSC at room temperature twice each for 5 minutes, 100 ml 2×SCC plus 1% SDS at 65° C. twice each for 30 minutes and then 100 ml 0.1×SSC at room temperature twice each for 30 minute. The membrane was dried at room temperature and each filtration spot was cut from the membrane and placed into 4 ml of toluene/DPO scintillant and hybridized label counted in a liquid scintillation spectrometer.

A further series concerns MCMV. Nature of the series: Mortality of mice infected with murine cytomegalovirus. Format: in vivo. The method, then: Compound UMJD 183 was tested in mice infected with murine cytomegalovirus (MCMV). This animal model has been recognized as having capabilities predictive of efficacy in humans.
Compound UMJD 183 and the drug ganciclovir (DHPG) were administered to groups of 15 mice each at doses and times of administration shown in Table 3. Each compound at all doses was administered intraperitoneally twice daily for five days beginning at either 6, 24 or 48 hours after virus inoculation. Animals were observed daily and the number dying each day recorded.
^a Animlas were treated i.p. twice daily for 5 days with the doses
stated above. Treatment was initiated at the times indicated following

The subject of another series is HCMV. The series is described as follows: HCMV plaque (focus) reduction assay in HFF cells. The series is classed as cell-based, human cytomegalovirus (Towne strain). The settings on record: in words. The method, then: The 148 strain of HSV-1 was used in most experiments and was provided by Dr. T. W. Schafer of Schering Corporation. The HF strain of HSV-1 was used in selected experiments and was obtained from Dr. G. H. Cohen, University of Pennsylvania. The Towne strain, plaque-purified isolate Po, of HCMV was a gift of Dr. Mark Stinski, University of Iowa.
Stock HCMV was prepared by infecting HFF cells at a multiplicity of infection (m.o.i.) of less than 0.01 plaque-forming units (p.f.u.) per cell. Cell growth medium was changed every four days until cytopathology was evident in all cells (approximately 21 days). Supernatant fluids were retained as the virus stock. Four days later, the remaining cells were disrupted by three cycles of freeze-thawing and the cell plus medium held as an additional source of virus. Storage was in liquid nitrogen.
HCMV was titered in 24-well cluster dishes which were planted to contain 5×10^4 HFF cells/well, grown as described above. When the cells were 70 to 80% confluent, 0.2 ml of the virus suspension was added per wall and adsorbed as described above. At least three ten-fold dilutions of each preparation were used. Following virus adsorption, the cell sheets were overlayed with 0.5% methocel (4000 CPS) in maintenance medium [(MEM) with 1.1 gm/liter NaHCO3, 100 units/ml penicillin G, 100 μg/ml streptomycin, and 5% fetal bovine serum]. The cultures were incubated in a humidified atmosphere of 4% CO2 -96% air. Viral foci were visible 5 to 7 days after infection using at least 10-fold magnification. Cells were fixed and stained by a 10-minute exposure to a 0.1% solution of crystal violet in 20% methanol 7 to 12 days after infection. Microscopic foci were enumerated at 20-fold magnification using a Nikon Profile Projector.
The effect of compounds of the replication of HCMV has been measured using both a plaque (focus) reduction assay and a titer (yield) reduction assay. For the former, HFF cells in 24-well culture dishes were infected with approximately 50 p.f.u. of HCMV per well using the procedures detailed above. Compounds dissolved in growth medium were added in three to six selected concentrations to triplicate wells following virus adsorption. Following incubation at 37° C. for 7 to 10 days, cell sheets were fixed, stained and microscopic foci were enumerated as described above. Drug effects were calculated as a percentage of reduction in number of foci in the presence of each drug concentration compared to the number observed in the absence of drug. DHPG (ganciclovir) was used as a positive control in all experiments.
Dose-response relationships were used to compare drug effects. These were constructed by linearly regressing the percent inhibition of parameters derived in the preceding sections against log drug concentrations. The 50% inhibitory (I50) concentrations were calculated from the regression lines using the methods described by Goldstein. See Goldstein, A., Biostatistics: An Introductory Text, MacMillan, N.Y., 1964, pp. 156-161. Along with the I50 concentration for visual cytotoxicity, the averaged I50 concentrations are compared to I50 concentrations for inhibition for HCMV or HSV-1 replication. Compounds for which the ratio of cytotoxicity I50 concentrations to antiviral I50 concentrations (in vitro therapeutic index) were greater than 10, were considered for further study.

[2] abbreviates: 0.6 mg/kg i.p. twice daily, from 6 h.
[3] abbreviates: 0.6 mg/kg i.p. twice daily, from 24 h.
The mark [4] stands for this setting: 0.6 mg/kg i.p. twice daily, from 48 h.
The mark [5] stands for this setting: 1.9 mg/kg i.p. twice daily, from 6 h.
The mark [6] stands for this setting: 1.9 mg/kg i.p. twice daily, from 24 h.
Where [7] appears, read: 1.9 mg/kg i.p. twice daily, from 48 h.
The mark [8] stands for this setting: 5.6 mg/kg i.p. twice daily, from 6 h.
The mark [9] stands for this setting: 5.6 mg/kg i.p. twice daily, from 24 h.
Setting [10] is: 5.6 mg/kg i.p. twice daily, from 48 h.
Setting [11] is: 16.7 mg/kg i.p. twice daily, from 6 h.
The mark [12] stands for this setting: 16.7 mg/kg i.p. twice daily, from 24 h.
Setting [13] is: 16.7 mg/kg i.p. twice daily, from 48 h.

For `Nc1nc(O)c2ncn(COC(CO)CO)c2n1` [Ganciclovir (DHPG), reference compound], the CC50 in series [1] was > 100 µM. Also, in the series with HCMV DNA synthesis, the IC50 turned out to be 1.2 µM. Besides, the “MDD (Mean Day of Death)” value in the series with MCMV (setting [2]) came out at 4.6; in the series with MCMV (setting [3]), 5.4; in the series with MCMV (setting [4]) it was 5.3; in the series on MCMV (setting [5]) it was 5.4; with MCMV (setting [6]), 4.9; in the series with MCMV (setting [7]), 4.9. The “MDD (Mean Day of Death)” value was determined as 4.2 with MCMV (setting [8]); 5.3 with MCMV (setting [9]); 5.5 in the series with MCMV (setting [10]); 3.8 in the series with MCMV (setting [11]); 5.3 in the series on MCMV (setting [12]); 5.5 with MCMV (setting [13]). Besides, the “Mortality Percent” value with MCMV (setting [2]) turned out to be 93%; in the series on MCMV (setting [3]), 80%; in the series on MCMV (setting [4]) it was 93%; in the series on MCMV (setting [5]), 33%; with MCMV (setting [6]), 80%; with MCMV (setting [7]), 73%. Moreover, the “Mortality Percent” value was 33% in the series with MCMV (setting [8]); 47% in the series on MCMV (setting [9]); 67% in the series on MCMV (setting [10]); 27% with MCMV (setting [11]); 47% with MCMV (setting [12]); 53% in the series on MCMV (setting [13]).
Take `Nc1nc2c(ncn2COCCO)c(=O)[nH]1` [Acyclovir, reference compound]: the “activity against HCMV” value in the series on HCMV is reported as “only modest activity against HCMV”. Further, the CC50 in series [1] was > 100 µM.

The values above are taken from patent USRE36187E, “Acyclic pyrrolo [2,3-d]pyrimidine analogs as antiviral agents” (The Regents of the University of Michigan, priority 1994, dated 1999).
